Assay results: article PMC8776228 (International Journal of Molecular Sciences, 2022)
Values after ≈ are worked out from the molar mass of the structure shown. Where two headings read alike, the source gives them in different places.

Columns and labels:
[1] = system: M. tuberculosis NTB1 (DprE1 C387S); format: cell-based, Mycobacterium tuberculosis
[2] = system: M. tuberculosis NTB9 (DprE1 C387G); format: cell-based, Mycobacterium tuberculosis
[3] = system: M. tuberculosis H37Rv-pSODIT:dprE1; assay: microbe, parasite or virus in culture; format: cell-based, Mycobacterium tuberculosis
[4] = system: M. tuberculosis 53.8 (Rv0579, L240V); format: cell-based, Mycobacterium tuberculosis
M. tuberculosis IC2 = assay: microbe, parasite or virus in culture; format: cell-based; conditions: Mycobacterium tuberculosis
[5] = system: M. tuberculosis 88.1 (coaA, Q207R); format: cell-based, Mycobacterium tuberculosis
[6] = system: M. tuberculosis 88.7 (pyrG, V186G); format: cell-based, Mycobacterium tuberculosis
[7] = system: M. tuberculosis 81.10 (ethA, D1109-37); format: cell-based, Mycobacterium tuberculosis
M. tuberculosis IC1 = assay: microbe, parasite or virus in culture; format: cell-based; conditions: Mycobacterium tuberculosis
[8] = system: M. tuberculosis 53.3 (Rv2466c, W28S); format: cell-based, Mycobacterium tuberculosis
[9] = system: M. tuberculosis Ty1 (Rv3405c, c190t); format: cell-based, Mycobacterium tuberculosis
[10] = system: M. tuberculosis DR1 (mmpL3, V681I); format: cell-based, Mycobacterium tuberculosis

SMILES: C[C@H]1COC2(CCN(c3nc(=O)c4cc(C(F)(F)F)cc([N+](=O)[O-])c4s3)CC2)O1 [BTZ043]
- MIC BTZ043 [1]: >1 µg/mL
- MIC BTZ043 [2]: 1 µg/mL (≈ 2.32 µM)
- MIC ([3]; Mycobacterium tuberculosis, H37RV, read-out: MIC BTZ043): 1 µg/mL (≈ 2.32 µM)

SMILES: NNC(=O)c1ccncc1 [INH, isoniazid]
- MIC INH [4]: 0.025 µg/mL (≈ 0.182 µM)
- MIC (M. tuberculosis IC2; IC2, read-out: MIC INH): > 0.2 µg/mL
- MIC INH [1]: 0.025 µg/mL (≈ 0.182 µM)
- MIC INH [5]: 0.025 µg/mL (≈ 0.182 µM)
- MIC INH [6]: 0.025 µg/mL (≈ 0.182 µM)
- MIC INH [7]: 0.025 µg/mL (≈ 0.182 µM)
- MIC INH [2]: 0.025 µg/mL (≈ 0.182 µM)
- MIC (M. tuberculosis IC1; IC1, read-out: MIC INH): > 0.2 µg/mL
- MIC INH [8]: 0.025 µg/mL (≈ 0.182 µM)
- MIC INH [9]: 0.025 µg/mL (≈ 0.182 µM)
- MIC INH [10]: 0.025 µg/mL (≈ 0.182 µM)

SMILES: CO[C@H]1C[C@H](O[C@@H]2/C(C)=C/C[C@@H]3C[C@@H](C[C@]4(CC[C@H](C)[C@@H](C5CCCCC5)O4)O3)OC(=O)[C@@H]3C=C(C)/C(=N/O)[C@H]4OC/C(=C\C=C\[C@@H]2C)[C@]43O)O[C@@H](C)[C@@H]1O [Selamectin]
- MIC SEL [4]: 2 to 4 µg/mL
- MIC (M. tuberculosis IC2; IC2, read-out: MIC SEL): 4 to 8 µg/mL (≈ 5.19 to 10.4 µM)
- MIC SEL [1]: 2 µg/mL (≈ 2.6 µM)
- change in sensitivity compared to H37Rv (MIC) [1]: two-fold increase in sensitivity
- MIC SEL [5]: 2 to 4 µg/mL
- MIC SEL [6]: 2 to 4 µg/mL
- MIC SEL [7]: 4 to 8 µg/mL
- MIC SEL [2]: 2 µg/mL (≈ 2.6 µM)
- change in sensitivity compared to H37Rv (MIC) [2]: two-fold increase in sensitivity
- MIC (M. tuberculosis IC1; IC1, read-out: MIC SEL): 4 to 8 µg/mL (≈ 5.19 to 10.4 µM)
- change in susceptibility upon overexpression of dprE1 (MIC) [3]: did not confer changes in the susceptibility
- MIC SEL [8]: 2 to 4 µg/mL
- MIC SEL [9]: 2 to 4 µg/mL
- MIC SEL [10]: 2 to 4 µg/mL
